From patent US20220096664A1, “STABILIZED FORMULATIONS CONTAINING IODINATED CONTRAST AGENTS AND CYCLODEXTRINS” (Verrow Pharmaceuticals, Inc., priority 2012, published 2022)
Read-outs that look alike come from different tables or passages of the source.

Columns and labels:
[1] = type: physicochemical; conditions: for Iodide formed: 50 mM agent, 10 mM TRIS, pH 7.4, autoclaved then UV 18 h
[2] = type: physicochemical
Experimental: The lamps were switched on and the solutions irradiated for 18 to 24 hours for the ultraviolet (UV) lamps or 72 to 90 hours for the visible (VIS) light lamps. At the end of the selected irradiation time, the cuvettes were removed from the photolysis chamber and mixed by inversion 2-times. The caps were then removed and 40 microliter aliquots taken and diluted with 1 mL of an aqueous solution containing ˜0.9 mg/mL sodium thiosulfate. The thiosulfate solution converted any I2, IO3^−, and I3^− present in the solution tor such that total iodine species could be determined in one assay.
The diluted solutions were assayed by high pressure liquid chromatography (HPLC) using a 4.6×250 mm, C-18, 5 micron particle size, reversed phase column with detection at 280 nm for the contrast agent and 230 nm for the thiosulfate and the iodide ion (r). A mobile phase of 30:70 methanol:aqueous buffer (50 mM KH2PO4+7 mL/L 40% tetrabutyl ammonium hydroxide) at 0.75 mL/min was used for elution. Injection volume was 20 microliters. External standards were prepared containing each contrast agent, potassium iodide, and sodium thiosulfate solution and analyzed along with the irradiated samples. The results were reported as weight percentage iodide formed (mg iodide/mg contrast agent times 100).
Aqueous solutions were prepared containing 50 mM iodinated contrast agent, 10 mM tromethamine HCl buffer (TRIS), with and without sulfobutylether beta-cyclodextrin with an average degree of substitution-7 (SBE7-β-CD), or 2-hydroxypropyl beta-cyclodextrin with an average degree of substitution of ˜6.3 (HP6.3-β-CD) or ˜4.3 (HP4.3-β-CD). The iohexol solution was prepared by dissolving solid iohexol powder while the other solutions were prepared by diluting commercial formulated products and adding sufficient TRIS buffer to reach 10 mM. The pH of the solutions was adjusted to 7.4 with 0.1N hydrochloric acid.
Aliquots of the solutions were irradiated with visible light for 72 hours (0.52 million lux hours). Other aliquots were autoclaved for 20 minutes at 121° C., cooled to room temperature and then irradiated with ultraviolet light for 18 hours (119 watt hours/m2). The solutions were then processed, analyzed and reported as in Example 2, except that the chromatographic peaks of the contrast agents were evaluated at 300 nm for both samples and standards. […]
Aqueous formulations were prepared containing iodinated contrast agents at concentrations used commercially in medical procedures. Sulfobutylether-cyclodextrin, sodium salt, average degree of substitution ˜7 (SBE7CD) was added at varying agent:CD mole ratios. The formulations were placed in glass vials, sealed with rubber stoppers and aluminum crimps, and autoclaved at 121° C. for 20 minutes. Aliquots of the autoclaved solutions were exposed to UV light for 24 hours (159 watt hours/m^2 or VIS light for 72 hours (0.52 million lux hours) as in Example 2. The solutions were then processed, analyzed and reported as in Example 2, with the following two exceptions; 1) the chromatographic peaks of the contrast agents were evaluated at 300 nm for both samples and standards, and 2) only 20 microliter sample aliquots were taken and diluted for HPLC analysis due to the higher concentrations used in this study. Results of the study are presented in the table below along with the solution compositions.

With `COCC(=O)Nc1c(I)c(C(=O)NCC(O)CO)c(I)c(C(=O)N(C)CC(O)CO)c1I` (stereo not shown) [Iopromide, iopromide] the Iodide formed ([1]; agent:SBE7-β-CD 1:0.1) was 0.330 wt %, the Iodide formed ([1]; no SCD (1:0)) was 0.487 wt % and the “Iodide Formed, UV” value ([1]; Iopromide 150 mg I/mL, pH 7.4, agent:SBE7CD 1:0.05, autoclaved then UV 24 h) was 0.110 wt %. For the same molecule, the “Iodide Formed, VIS” value ([1]; Iopromide 150 mg I/mL, pH 7.4, agent:SBE7CD 1:0.05, autoclaved then VIS 72 h) was 0.0671 wt %, the “Iodide Formed, UV” value ([1]; Iopromide 150 mg I/mL, pH 7.4, no SCD (1:0), autoclaved then UV 24 h) was 0.148 wt % and the “Iodide Formed, VIS” value ([1]; Iopromide 150 mg I/mL, pH 7.4, no SCD (1:0), autoclaved then VIS 72 h) was 0.0735 wt %. The “Iodide Formed, UV” value ([1]; Iopromide 240 mg I/mL, pH 7.4, agent:SBE7CD 1:0.05, autoclaved then UV 24 h) was 0.113 wt %, the “Iodide Formed, VIS” value ([1]; Iopromide 240 mg I/mL, pH 7.4, agent:SBE7CD 1:0.05, autoclaved then VIS 72 h) was 0.0413 wt % and the “Iodide Formed, UV” value ([1]; Iopromide 240 mg I/mL, pH 7.4, no SCD (1:0), autoclaved then UV 24 h) was 0.129 wt %. The “Iodide Formed, VIS” value ([1]; Iopromide 240 mg I/mL, pH 7.4, no SCD (1:0), autoclaved then VIS 72 h) was 0.0504 wt %, the “Iodide Formed, UV” value ([1]; Iopromide 300 mg I/mL, pH 7.4, agent:SBE7CD 1:0.05, autoclaved then UV 24 h) was 0.102 wt % and the “Iodide Formed, VIS” value ([1]; Iopromide 300 mg I/mL, pH 7.4, agent:SBE7CD 1:0.05, autoclaved then VIS 72 h) was 0.0426 wt %. For the same molecule, the “Iodide Formed, UV” value ([1]; Iopromide 300 mg I/mL, pH 7.4, no SCD (1:0), autoclaved then UV 24 h) was 0.110 wt %, the “Iodide Formed, VIS” value ([1]; Iopromide 300 mg I/mL, pH 7.4, no SCD (1:0), autoclaved then VIS 72 h) was 0.0493 wt % and the “Iodide Formed, UV” value ([1]; Iopromide 370 mg I/mL, pH 7.4, agent:SBE7CD 1:0.05, autoclaved then UV 24 h) was 0.0780 wt %. The “Iodide Formed, VIS” value ([1]; Iopromide 370 mg I/mL, pH 7.4, agent:SBE7CD 1:0.05, autoclaved then VIS 72 h) was 0.0351 wt %, the “Iodide Formed, UV” value ([1]; Iopromide 370 mg I/mL, pH 7.4, no SCD (1:0), autoclaved then UV 24 h) was 0.0989 wt % and the “Iodide Formed, VIS” value ([1]; Iopromide 370 mg I/mL, pH 7.4, no SCD (1:0), autoclaved then VIS 72 h) was 0.0392 wt %. The “Iodide Formed, Autoclaved” value ([2]; Iopromide 150 mg I/mL, pH 7.4, agent:SBE7CD 1:0.05) was 0.00289 wt %, the “Iodide Formed, Autoclaved” value ([2]; Iopromide 150 mg I/mL, pH 7.4, no SCD (1:0)) was 0.00383 wt % and the “Iodide Formed, Autoclaved” value ([2]; Iopromide 240 mg I/mL, pH 7.4, agent:SBE7CD 1:0.05) was 0.00217 wt %. For the same molecule, the “Iodide Formed, Autoclaved” value ([2]; Iopromide 240 mg I/mL, pH 7.4, no SCD (1:0)) was 0.00204 wt %, the “Iodide Formed, Autoclaved” value ([2]; Iopromide 300 mg I/mL, pH 7.4, agent:SBE7CD 1:0.05) was 0.00118 wt % and the “Iodide Formed, Autoclaved” value ([2]; Iopromide 300 mg I/mL, pH 7.4, no SCD (1:0)) was 0.00145 wt %. The “Iodide Formed, Autoclaved” value ([2]; Iopromide 370 mg I/mL, pH 7.4, agent:SBE7CD 1:0.05) was 0.00072 wt % and the “Iodide Formed, Autoclaved” value ([2]; Iopromide 370 mg I/mL, pH 7.4, no SCD (1:0)) was 0.00111 wt %.

With `CC(=O)N(CC(O)CN(C(C)=O)c1c(I)c(C(=O)NCC(O)CO)c(I)c(C(=O)NCC(O)CO)c1I)c1c(I)c(C(=O)NCC(O)CO)c(I)c(C(=O)NCC(O)CO)c1I` (stereo not shown) [Iodixanol, iodixanol] the Iodide formed ([1]; agent:SBE7-β-CD 1:0.1) was 0.220 wt %, the Iodide formed ([1]; no SCD (1:0)) was 0.292 wt % and the “Iodide Formed, UV” value ([1]; Iodixanol 270 mg I/mL, pH 7.4, agent:SBE7CD 1:0.05, autoclaved then UV 24 h) was 0.0791 wt %. The “Iodide Formed, VIS” value ([1]; Iodixanol 270 mg I/mL, pH 7.4, agent:SBE7CD 1:0.05, autoclaved then VIS 72 h) was 0.0288 wt %, the “Iodide Formed, UV” value ([1]; Iodixanol 270 mg I/mL, pH 7.4, no SCD (1:0), autoclaved then UV 24 h) was 0.0845 wt % and the “Iodide Formed, VIS” value ([1]; Iodixanol 270 mg I/mL, pH 7.4, no SCD (1:0), autoclaved then VIS 72 h) was 0.0325 wt %. The “Iodide Formed, UV” value ([1]; Iodixanol 320 mg I/mL, pH 7.4, agent:SBE7CD 1:0.05, autoclaved then UV 24 h) was 0.0743 wt %, the “Iodide Formed, VIS” value ([1]; Iodixanol 320 mg I/mL, pH 7.4, agent:SBE7CD 1:0.05, autoclaved then VIS 72 h) was 0.0251 wt % and the “Iodide Formed, UV” value ([1]; Iodixanol 320 mg I/mL, pH 7.4, no SCD (1:0), autoclaved then UV 24 h) was 0.0751 wt %. For the same molecule, the “Iodide Formed, VIS” value ([1]; Iodixanol 320 mg I/mL, pH 7.4, no SCD (1:0), autoclaved then VIS 72 h) was 0.0265 wt %, the “Iodide Formed, Autoclaved” value ([2]; Iodixanol 270 mg I/mL, pH 7.4, agent:SBE7CD 1:0.05) was 0.0161 wt % and the “Iodide Formed, Autoclaved” value ([2]; Iodixanol 270 mg I/mL, pH 7.4, no SCD (1:0)) was 0.0167 wt %. For the same molecule, the “Iodide Formed, Autoclaved” value ([2]; Iodixanol 320 mg I/mL, pH 7.4, agent:SBE7CD 1:0.05) was 0.0135 wt % and the “Iodide Formed, Autoclaved” value ([2]; Iodixanol 320 mg I/mL, pH 7.4, no SCD (1:0)) was 0.0132 wt %.
